Data taken from patent US9481683B2, “1,3-benzothiazinone sulfoxide and sulfone compounds” (UNIVERSITY OF NOTRE DAME DU LAC, priority 2014, dated 2016).
≈ marks a conversion by molar mass, not a printed value. Read-outs that look alike come from different tables or passages of the source.

Assays:
[1] = system: M. marinum (ATCC: 927); assay: NTM MIC assay, M. marinum; format: cell-based, Mycobacterium marinum; conditions: for In vitro activity (MIC) M. marinum: Middlebrook 7H9 with OADC, 30° C., 5 days
[2] = system: P. aeruginosa KW799/61; assay: Broth microdilution MIC, P. aeruginosa; format: cell-based, Pseudomonas aeruginosa; conditions: 37° C., 18-20 h, average of three measurements
[3] = system: M. vaccae IMET10670; assay: Broth microdilution MIC, M. vaccae; format: cell-based, Mycobacterium vaccae; conditions: 37° C., 18-20 h, average of three measurements
[4] = system: M. kansasii (ATCC:12478); assay: NTM MIC assay, M. kansasii; format: cell-based, Mycobacterium kansasii; conditions: for In vitro activity (MIC) M. kansasii: Middlebrook 7H9 with OADC, 37° C., 6 days
[5] = system: M. aurum (SB66); assay: Broth microdilution MIC, M. aurum; format: cell-based, Mycobacterium aurum; conditions: 37° C., 18-20 h, average of three measurements, in µM
[6] = system: M. smegmatis (MC2155); assay: Broth microdilution MIC, M. smegmatis; format: cell-based, Mycobacterium smegmatis; conditions: 37° C., 18-20 h, average of three measurements
[7] = system: MCF-7 (breast cancer); assay: Cytotoxicity, crystal violet biomass reduction assay, MCF-7; format: cell-based; conditions: 72 h
Description: (§1) Cytotoxicity Assays: against PC3, HeLa and MCF-7 cell lines.
(§2) In vitro activities against cells were determined with a crystal violet biomass reduction assay. Cells were grown in media supplemented with fetal bovin serum and penicillin/streptromycin antibiotic. 100 μL of cell inoculums was added to each well. After cell inoculation, the 96 well micro-titer plates were incubated at 37° C. and 5% CO2 with 95% humidity for 24 h prior to addition of compounds. A stock solution of each compound was made in DMSO and then diluted with media to give a 40 μM solution. 100 μL of DMSO/media solutions of compounds were added in replicates of 3. 100 μL solution was added to the first set of wells. Two-fold serial dilutions were made down each row of the micro-titer plate. The cells were incubated in a 37° C., 5% CO2 and 95% humidity for 72 h. The media was removed and the cells were fixed with glutaraldehyde, rinsed, stained with crystal violet, rinsed and air dried. The stain was eluted with a solution of Triton-X-100 and optical density was measured at 595 nm. Trichostatin A was used as a positive control for all the cell lines tested.

[8] = system: M. luteus ATCC10240; assay: Broth microdilution MIC, M. luteus; format: cell-based; conditions: 37° C., 18-20 h, average of three measurements
[9] = system: PC3 (prostate cancer); assay: Cytotoxicity, crystal violet biomass reduction assay, PC3; format: cell-based; conditions: 72 h
Description: as §1, §2

[10] = system: M. bovis BCG (ATCC: 35734); format: cell-based, Mycobacterium bovis; conditions: for In vitro activity (MIC) M. bovis: M. bovis BCG, 7H12, 37° C., 6 days
[11] = system: Mtb H37Rv (ATCC#27294); assay: Microplate Alamar Blue assay (MABA), replicating TB; format: cell-based, Mycobacterium tuberculosis; conditions: for MIC: Mycobacterium tuberculosis, H37Rv, reduction in fluorescence of ≧90%
[12] = system: A. baumanii ATCC17961; assay: Broth microdilution MIC, A. baumanii; format: cell-based, Acinetobacter baumanii; conditions: 37° C., 18-20 h, average of three measurements
[13] = system: S. aureus SG511; assay: Broth microdilution MIC, S. aureus; format: cell-based, Staphylococcus aureus; conditions: 37° C., 18-20 h, average of three measurements
[14] = system: HeLa; assay: Cytotoxicity, crystal violet biomass reduction assay, HeLa; format: cell-based; conditions: 72 h
Description: as §1, §2

[15] = 7H12 medium, read-out: MABA:MIC 7H12
[16] = glycerol-alanine-salts medium, read-out: MABA:MIC GAS

SMILES	In vitro activity (MIC) M. marinum [1]	In vitro activity (MIC) P. aeruginosa KW799/61 [2]	In vitro activity (MIC) M. vaccae IMET10670 [3]	In vitro activity (MIC) M. kansasii [4]	In vitro activity (MIC) M. aurum [5]	In vitro activity (MIC) M. smegmatis [6]	Cytotoxicity MCF-7 [7]	In vitro activity (MIC) M. luteus ATCC10240 [8]	Cytotoxicity PC3 [9]	Activity against M. bovis (in words) [10]	In vitro activity (MIC) M. bovis [10]	Activity against M. tuberculosis (in words) [11]	MIC [11, 15]	MIC [11, 16]	In vitro activity (MIC) A. baumanii ATCC17961 [12]	In vitro activity (MIC) S. aureus SG511 [13]	Cytotoxicity HeLa [14]	Activity against M. marinum (in words) [1]	Activity against M. kansasii (in words) [4]
C[C@H]1COC2(CCN(c3nc(=O)c4cc(C(F)(F)F)cc([N+](=O)[O-])c4s3)CC2)O1 [Compound 1, BTZ043, reference compound]	0.037 µM	>200	0.002 µM	< 0.02 µM	>200	0.002 µM	>20	> 200 µM	>20	impressive activity	< 0.02 µM	impressive activity	< 0.02 µM	< 0.02 µM	> 200 µM	> 0.2 µM	>20	–	–
C[C@H]1COC2(CCN(C3=NC(=O)c4cc(C(F)(F)F)cc([N+](=O)[O-])c4S3(=O)=O)CC2)O1 [Compound 6, (S)-2-(2-Methyl-1,4-dioxa-8-azaspiro[4.5]decan-8-yl)-8-nitro-6-(trifluoromethyl)-4H-benzo[e][1,3]thiazin-4-one 1,1-dioxide]	–	>200	< 0.013 µM	–	>200	> 0.5 µM	>20	> 200 µM	>20	only weakly active	–	only weakly active	1.46 µM (≈ 0.677 µg/mL)	0.75 µM	> 200 µM	0.2 µM	>20	either inactive or weakly inactive	either inactive or weakly inactive
C[C@H]1COC2(CCN(c3nc(=O)c4cc(C(F)(F)F)cc([N+](=O)[O-])c4[s+]3[O-])CC2)O1 (stereo partly drawn) [Compound 5, 2-((S)-2-Methyl-1,4-dioxa-8-azaspiro[4.5]decan-8-yl)-8-nitro-6-(trifluoromethyl)-4H-benzo[e][1,3]thiazin-4-one 1-oxide]	0.19 µM	>200	< 0.013 µM	0.3 µM	3.13-12.5	< 0.013 µM	>20	50 µM	15	impressive activity	0.21 µM	impressive activity	0.06 µM (≈ 0.0268 µg/mL)	< 0.02 µM	> 200 µM	12.5 µM	>20	demonstrated activity	demonstrated activity
CO[C@H]1/C=C/O[C@@]2(C)Oc3c(C)c(O)c4c(O)c(c(/C=N/N5CCN(C)CC5)c(O)c4c3C2=O)NC(=O)/C(C)=C\C=C\[C@H](C)[C@H](O)[C@@H](C)[C@@H](O)[C@@H](C)[C@H](OC(C)=O)[C@@H]1C [Rifampin]	0.23 µM	–	–	0.1 µM	–	–	–	–	–	–	0.02 µM	–	0.05 µM (≈ 0.0411 µg/mL)	0.04 µM	–	–	–	–	–
NNC(=O)c1ccncc1 [INH]	> 8 µM	–	–	3.86 µM	–	–	–	–	–	–	0.5 µM	–	0.1 µM (≈ 0.0137 µg/mL)	0.03 µM	–	–	–	–	–
O=C(O)c1cn(C2CC2)c2cc(N3CCNCC3)c(F)cc2c1=O [Ciprofloxacin, reference compound]	–	0.156	0.32 µM	–	0.020	0.32 µM	–	1.25 µM	–	–	–	–	–	–	0.156 µM	0.32 µM	–	–	–
